Results: patent publication JPH0770139A, “2−(モノ又はジ置換−6，7−ジヒドロ−5H−ピラゾロ[1，2−a]ピラゾリウム−6−イル)チオ−カルバペネム誘導体” (Lederle Japan Ltd, priority 1993, dated 1994)

Tested on: male CrjCD(SD) mice [CrjCD(SD)系雄性マウス]
Assay: Toxicity test (subcutaneous administration to mice, 1 week observation)
Type: in vivo, mouse
Settings: 500mg/kg, 10 male CrjCD(SD) mice, body weight 20-23 g, observation for 1 week

| Structure (SMILES) | survival without abnormality |
| --- | --- |
| Cc1cc(C)[n+]2n1CC(SC1=C(C(=O)[O-])N3C(=O)[C@H]([C@@H](C)O)[C@H]3[C@H]1C)C2 (stereo partly drawn) [化合物(26), (1R,5S,6S)−2−[(6,7−ジヒドロ−1,3−ジメチル−5H−ピラゾロ[1,2−a]ピラゾリウム−6−イル)チオ]−6−[(R)−1−ヒドロキシエチル]−1−メチル−カルバペン−2−エム−3−カルボキシレート] | すべて異常なく生存した |
| C[C@@H](O)[C@H]1C(=O)N2C(C(=O)[O-])=C(SC3Cn4cc(C(=O)N(C)C)c[n+]4C3)[C@H](C)[C@H]12 (stereo partly drawn) [化合物(28), (1R,5S,6S)−2−{[6,7−ジヒドロ−2−(N,N−ジメチルカルバモイル)−5H−ピラゾロ[1.2−a]ピラゾリウム−6−イル]チオ}−6−[(R)−ヒドロキシエチル]−1−メチルカルバペン−2−エム−3−カルボキシレート] | すべて異常なく生存した |
| C[C@@H](O)[C@H]1C(=O)N2C(C(=O)[O-])=C(SC3Cn4cc(F)c[n+]4C3)[C@H](C)[C@H]12 (stereo partly drawn) [化合物(30), (1R,5S,6S)−2−[(6,7−ジヒドロ−2−フルオロ−5H−ピラゾロ[1.2−a]ピラゾリウム−6−イル)チオ]−6−[(R)−1−ヒドロキシエチル]−1−メチルカルバペン−2−エム−3−カルボキシレート] | すべて異常なく生存した |
